Experimental data taken from DBAASP.
In brackets after ≈: the same amount, converted by molar mass. Several values for one entry are separate records, joined by “and”; a condition that tells them apart may be missing. Equal entries are not always repeated. Values belong to the molecule of their own block, whether it stands above or below them.

How the values were obtained:
Experiment in all cases: ≥ marks a high value that may be exact or a test limit, other limits are often not marked, values filed in µg/mL are converted to µM
[1] = system: Pseudomonas aeruginosa A093085
[2] = system: Enterococcus faecalis ATCC 29212
[3] = system: Escherichia coli
[4] = system: Staphylococcus aureus P1374
[5] = system: Staphylococcus aureus
[6] = system: Klebsiella pneumoniae ATCC 700603
[7] = system: Staphylococcus aureus NBRC 100910
[8] = system: Escherichia coli AB94012
[9] = system: Pseudomonas aeruginosa
[10] = system: Bacillus subtilis AB91021
[11] = system: Pseudomonas aeruginosa A093052
[12] = system: Acinetobacter baumannii ATCC 19606
[13] = system: Pseudomonas aeruginosa A092994
[14] = system: Pseudomonas aeruginosa ATCC 27853
[15] = system: Staphylococcus epidermidis
[16] = system: Staphylococcus aureus AB94004
[17] = system: Pseudomonas aeruginosa A093056
[18] = system: Escherichia coli ATCC 35218
[19] = system: Pseudomonas aeruginosa A093115
[20] = system: Enterococcus faecalis
[21] = system: Staphylococcus aureus P1369
[22] = system: Acinetobacter baumannii
[23] = system: Staphylococcus aureus P1383
[24] = system: Staphylococcus epidermidis P1389
[25] = system: Staphylococcus epidermidis P1111
[26] = system: Micrococcus luteus AB93113
[27] = system: Staphylococcus aureus P1381
[28] = system: Escherichia coli ATCC 25922
[29] = system: Staphylococcus aureus ATCC 29213
[30] = system: Bacillus thuringiensis AB92037
[31] = system: Klebsiella pneumoniae
[32] = system: Pseudomonas aeruginosa AB93066
[33] = system: Enterococcus faecium
[34] = system: Staphylococcus aureus ATCC 25923
[35] = system: Bacillus megaterium CGMCC 1.0459
[36] = system: Micrococcus luteus CGMCC 1.0290
[37] = system: Schizosaccharomyces pombe
[38] = system: Pseudomonas aeruginosa ATCC 15692
[39] = system: Saccharomyces cerevisiae
[40] = system: Bacillus megaterium Bm11
[41] = system: Staphylococcus aureus Cowan 1
[42] = system: Staphylococcus epidermidis ATCC 12228
[43] = system: Candida albicans ATCC 10231
[44] = system: Streptococcus pyogenes ATCC 21547
[45] = system: Escherichia coli D21
[46] = system: Yersinia pseudotuberculosis YPIII
[47] = system: Acinetobacter junii RT-4
[48] = system: Staphylococcus capitis 1
[49] = system: Pseudomonas syringae pv. tabaci 1918NCPPB
[50] = system: Bordetella pertussis

MIC [1]: 29.9 µM (≈ 50 µg/mL)
MIC [2]: 2.99 µM (≈ 5 µg/mL)
MIC [3]: 8.45 µM (≈ 14.1 µg/mL)
MIC [4]: 1.87 µM (≈ 3.13 µg/mL)
MIC [5]: 2.11 µM (≈ 3.53 µg/mL)
MIC [6]: 5.97 µM (≈ 9.99 µg/mL)
MIC [7]: 2.39 µM (≈ 4 µg/mL)
MIC [8]: 3.73 µM (≈ 6.25 µg/mL)
MIC [9]: 8.45 µM (≈ 14.1 µg/mL)
MIC [10]: 3.73 µM (≈ 6.25 µg/mL)
MIC [11]: ≥ 59.7 µM
MIC [12]: 2.99 µM (≈ 5 µg/mL)
MIC [13]: 29.9 µM (≈ 50 µg/mL)
MIC [14]: 5.97 µM (≈ 9.99 µg/mL)
MIC [15]: 2.11 µM (≈ 3.53 µg/mL)
MIC [16]: 1.87 µM (≈ 3.13 µg/mL)
MIC [17]: 29.9 µM (≈ 50 µg/mL)
MIC [18]: 5.97 µM (≈ 9.99 µg/mL)
MIC [19]: ≥ 59.7 µM
MIC [20]: 5.97 µM (≈ 9.99 µg/mL)
MIC [21]: 1.87 µM (≈ 3.13 µg/mL)
MIC [22]: 4.22 µM (≈ 7.07 µg/mL)
MIC [23]: 3.73 µM (≈ 6.25 µg/mL)
MIC [24]: 3.73 µM (≈ 6.25 µg/mL)
MIC [25]: 1.87 µM (≈ 3.13 µg/mL)
MIC [26]: 3.73 µM (≈ 6.25 µg/mL)
MIC [27]: 3.73 µM (≈ 6.25 µg/mL)
MIC [28]: 14.9 µM and 5.97 µM
MIC [29]: 2.99 µM (≈ 5 µg/mL)
MIC [30]: 3.73 µM (≈ 6.25 µg/mL)
MIC [31]: 5.97 µM (≈ 9.99 µg/mL)
MIC [32]: 14.9 µM (≈ 25 µg/mL)
MIC [33]: 2.99 µM (≈ 5 µg/mL)
MIC [34]: 1.87 µM (≈ 3.13 µg/mL)
SMILES: CC[C@H](C)[C@H](NC(=O)[C@H](CCCN=C(N)N)NC(=O)[C@H](CCCCN)NC(=O)[C@@H](NC(=O)[C@@H](N)Cc1ccccc1)[C@@H](C)CC)C(=O)N[C@@H](C)C(=O)N[C@@H](CCCN=C(N)N)C(=O)N[C@@H](CC(C)C)C(=O)N[C@@H](CC(C)C)C(=O)N[C@@H](CCCN=C(N)N)C(=O)N[C@@H](CCCCN)C(=O)N[C@H](C(=O)N[C@@H](Cc1ccccc1)C(N)=O)[C@@H](C)CC [FIKRIARLLRKIF]

MIC [35]: 1.5 µM (≈ 6.96 µg/mL)
MIC [36]: 4.54 µM (≈ 21.1 µg/mL)
SMILES: CC(C)C[C@@H]1NC(=O)[C@@H]2CSSC[C@@H](C(=O)N[C@@H](CCCN=C(N)N)C(=O)O)NC(=O)[C@H](C(C)C)NC(=O)[C@@H]3CSSC[C@H](NC(=O)[C@H](C)NC(=O)[C@H](CO)NC(=O)[C@H](Cc4cnc[nH]4)NC(=O)[C@H](CC(N)=O)NC(=O)[C@@H]4CCCN4C(=O)[C@H](CO)NC(=O)[C@H](C(C)C)NC(=O)[C@H](Cc4c[nH]c5ccccc45)NC(=O)[C@H](CCCCN)NC(=O)[C@H](CO)NC(=O)[C@H](CCC(N)=O)NC(=O)[C@H](Cc4ccccc4)NC(=O)[C@H](CO)NC(=O)[C@H](CC(C)C)NC(=O)[C@H](C(C)C)NC(=O)[C@H](CC(=O)O)NC(=O)[C@@H](NC(=O)[C@H](CO)NC(=O)[C@@H](N)Cc4ccccc4)CSSC[C@H](NC(=O)[C@H](CCCCN)NC(=O)CNC(=O)CNC(=O)[C@H](CCCCN)NC(=O)[C@H](CCCN=C(N)N)NC(=O)[C@H](CCCN=C(N)N)NC(=O)[C@H](CCC(N)=O)NC(=O)[C@H](C)NC1=O)C(=O)N[C@@H](CCCCN)C(=O)N[C@@H](CC(N)=O)C(=O)NCC(=O)N[C@@H](CC(=O)O)C(=O)N3)C(=O)N[C@@H](C)C(=O)N[C@@H](C(C)C)C(=O)N[C@@H](CCCN=C(N)N)C(=O)N2 [FSCDVLSFQSKWVSPNHSACAVRCLAQRRKGGKCKNGDCVCR]

MIC [2]: 12 µM (≈ 19.3 µg/mL)
MIC [12]: 6 µM (≈ 9.67 µg/mL)
MIC [37]: 6 µM (≈ 9.67 µg/mL)
MIC [38]: 24 µM (≈ 38.7 µg/mL)
MIC [39]: 6 µM (≈ 9.67 µg/mL)
MIC [40]: 3 µM (≈ 4.84 µg/mL)
MIC [14]: 48 µM (≈ 77.4 µg/mL)
MIC [41]: 12 µM (≈ 19.3 µg/mL)
MIC [42]: 6 µM (≈ 9.67 µg/mL)
MIC [43]: 12 µM (≈ 19.3 µg/mL)
MIC [44]: 6 µM (≈ 9.67 µg/mL)
MIC [45]: 24 µM (≈ 38.7 µg/mL)
MIC [28]: 12 µM (≈ 19.3 µg/mL)
MIC [46]: 6 µM (≈ 9.67 µg/mL)
MIC [47]: 6 µM (≈ 9.67 µg/mL)
MIC [48]: 6 µM (≈ 9.67 µg/mL)
MIC [34]: 6 µM (≈ 9.67 µg/mL)
MIC [49]: 24 µM (≈ 38.7 µg/mL)
SMILES: CC[C@H](C)[C@H](NC(=O)[C@H](CCCCN)NC(=O)CNC(=O)[C@H](CC(C)C)NC(=O)[C@H](Cc1ccccc1)NC(=O)[C@H](CCCCN)NC(=O)[C@H](CO)NC(=O)[C@H](Cc1ccccc1)NC(=O)[C@H](Cc1c[nH]c2ccccc12)NC(=O)[C@H](CCC(N)=O)NC(=O)[C@@H](NC(=O)[C@@H](N)Cc1ccccc1)C(C)C)C(=O)N[C@@H](CC(C)C)C(N)=O [FVQWFSKFLGKIL]

MIC [50]: 1.1 µM (≈ 4.99 µg/mL)
MIC [28]: 22.1 µM (≈ 99.9 µg/mL)
MIC [34]: 17.7 µM (≈ 79.9 µg/mL)
SMILES: CC[C@H](C)[C@@H]1NC(=O)[C@H](CCC(N)=O)NC(=O)[C@H](CCCCN)NC(=O)[C@H](CCSC)NC(=O)[C@H](CCCCN)NC(=O)[C@@H]2CCCN2C(=O)[C@H](C)NC(=O)[C@@H]2CSSC[C@@H](C(=O)N[C@@H](CCCCN)C(=O)N[C@@H](CCCN=C(N)N)C(=O)N[C@@H](CCCCN)C(=O)O)NC(=O)[C@@H]3CSSC[C@H](NC(=O)[C@H](CO)NC(=O)[C@@H](NC(=O)[C@H](CO)NC(=O)[C@H](CC(N)=O)NC(=O)CNC(=O)[C@@H](NC(=O)[C@H](CC(N)=O)NC(=O)[C@@H](N)CCCCN)[C@@H](C)CC)C(C)C)C(=O)N[C@@H](CC(C)C)C(=O)N[C@@H](CCCN=C(N)N)C(=O)N[C@@H](CC(N)=O)C(=O)N[C@@H](CCCCN)C(=O)NCC(=O)N[C@@H](C(C)C)C(=O)N[C@@H](CSSC[C@H](NC(=O)[C@H]([C@@H](C)O)NC(=O)CNC1=O)C(=O)NCC(=O)N[C@@H](CCSC)C(=O)N1CCC[C@H]1C(=O)N[C@@H](CCC(N)=O)C(=O)N[C@@H](C(C)C)C(=O)N[C@@H](CCCCN)C(=O)N3)C(=O)N[C@@H](CCSC)C(=O)N1CCC[C@H]1C(=O)NCC(=O)N[C@@H](CCCCN)C(=O)N2 [KNIGNSVSCLRNKGVCMPGKCAPKMKQIGTCGMPQVKCCKRK]
